In the oligonucleotide strings, read from the 5' end, every base follows the letter of its sugar. An asterisk marks phosphorothioate; unmarked linkages are phosphodiester. Other units and linkages are bracketed, terminal groups are in braces. A string of capitals states the bases alone. e = 2'-O-(2-methoxyethyl) (MOE); [5mC] = 5-methylcytosine
Key:
Glut4 = Glut4 mRNA expression in adipocytes (real-time PCR); type: cell-based, human; details: differentiating adipocytes transfected with oligomeric compound
HSL = HSL mRNA expression in adipocytes (real-time PCR); type: cell-based, human; details: differentiating adipocytes transfected with oligomeric compound
PPARγ = PPARγ mRNA expression in adipocytes (real-time PCR); type: cell-based, human; details: differentiating adipocytes transfected with oligomeric compound
aP2 = aP2 mRNA expression in adipocytes (real-time PCR); type: cell-based, human; details: differentiating adipocytes transfected with oligomeric compound; for aP2 mRNA: Table 75
HuVECs = assay: Endothelial tube formation assay in HuVECs; details: for % Activity Relative to UTC (tube formation): 75 nM oligomeric compound; for tube formation: 75 nM
Method: In some embodiments, HUVECs are used to measure the effects of oligomeric compounds of the invention on endothelial tube formation activity. The tube formation assay is performed using an in vitro Angiogenesis Assay Kit (Chemicon International, Temecula, Calif.).
Untreated control cells receive LIPOFECTIN™ only.
Approximately fifty hours after transfection, cells are transferred to 96-well plates coated with ECMatrix™ (Chemicon International). Under these conditions, untreated HUVECs form tube-like structures. After an overnight incubation at 37° C., treated and untreated cells are inspected by light microscopy. Tube formation in cells treated with oligomeric compounds is compared to that in untreated control cells. Individual wells are assigned discrete scores from 1 to 5 depending on the extent of tube formation. A score of 1 refers to a well with no tube formation while a score of 5 is given to wells where all cells are forming an extensive tubular network.
In one embodiment, primary human umbilical vein endothelial cells (HuVECs) were used to measure the effects of oligomeric compounds targeted to miRNAs on tube formation activity. HuVECs were routinely cultured in EBM (Clonetics Corporation, Walkersville, Md.) supplemented with SingleQuots supplements (Clonetics Corporation, Walkersville, Md.). […] HuVECs are plated at 3000 cells/well in 96-well plates. One day later, cells are transfected with oligomeric compounds. The tube formation assay is performed using an in vitro Angiogenesis Assay Kit (Chemicon International, Temecula, Calif.).
ISIS 29248 and ISIS 196103 are chimeric 5-10-52′-MOE gapmer oligonucleotides. […] All cytidine residues are 5-methylcytidines. ISIS 342672 (SEQ ID NO: 789) contains 13 mismatches with respect to the mature mir-143 miRNA, and was also used as a negative control. ISIS 342672 is a uniform 2′-MOE phosphorothioate oligomeric compound 22 nucleotides in length. All cytidine residues are 5-methylcytidines.
Oligomeric compound was mixed with LIPOFECTIN™ (Invitrogen Life Technologies, Carlsbad, Calif.) in OPTI-MEM™ (Invitrogen Life Technologies, Carlsbad, Calif.) to achieve a final concentration of 75 nM of oligomeric compound and 2.25 μg/mL LIPOFECTIN™. Before adding to cells, the oligomeric compound, LIPOFECTIN™ and OPTI-MEM™ were mixed thoroughly and incubated for 0.5 hrs. Untreated control cells received LIPOFECTIN™ only. […] Compounds targeted to miRNAs were tested in triplicate, and ISIS 29848 was tested in up to six replicates. […] 100 μL of full growth medium was added to each well. Fifty hours after transfection, cells are transferred to 96-well plates coated with ECMa-trix™ (Chemicon Inter-national). Under these conditions, untreated HuVECs form tube-like structures.

adipocytes = assay: Triglyceride accumulation assay in adipocytes; type: cell-based, human; details: differentiating adipocytes transfected with oligomeric compound

| Substance | GLUT4 mRNA (Glut4; Table 75) | HSL mRNA (HSL; Table 75) | PPAR gamma mRNA (PPARγ; Table 75) | aP2 mRNA (aP2) | TG (triglyceride accumulation) (adipocytes; Table 75) | % Activity Relative to UTC (tube formation) (HuVECs; Table 56) [%] | also measured |
| --- | --- | --- | --- | --- | --- | --- | --- |
| 327968 (antisense e[5mC]*eA*eA*eT*eG*e[5mC]*eA*eA*e[5mC]*eA*eG*e[5mC]*eA*eA*eT*eG*e[5mC]*eA*e[5mC]) [compound 327968] | 85 percentage of untreated control (UTC) | 79 percentage of untreated control (UTC) | 79 percentage of untreated control (UTC) | 67 percentage of untreated control (UTC) | 94 percentage of untreated control (UTC) |  | % Activity Relative to UTC (tube formation) (HuVECs; Table 59): 93.3% |
| 327891 (antisense eG*eG*e[5mC]*e[5mC]*eG*eT*eG*eA*e[5mC]*eT*eG*eG*eA*eG*eA*e[5mC]*eT*eG*eT*eT*eA) [compound 327891] | 47 percentage of untreated control (UTC) | 52 percentage of untreated control (UTC) | 50 percentage of untreated control (UTC) | 56 percentage of untreated control (UTC) | 22 percentage of untreated control (UTC) | 50.0 |  |
| 327882 (antisense eT*e[5mC]*eA*e[5mC]*eT*eT*eT*eT*eG*eT*eG*eA*e[5mC]*eT*eA*eT*eG*e[5mC]*eA*eA) [compound 327882] |  |  |  |  |  | 107.1 |  |
| 327898 (antisense eG*eT*eA*eG*eT*eG*e[5mC]*eT*eT*eT*e[5mC]*eT*eA*e[5mC]*eT*eT*eT*eA*eT*eG) [compound 327898] | 82 percentage of untreated control (UTC) | 92 percentage of untreated control (UTC) | 101 percentage of untreated control (UTC) | 96 percentage of untreated control (UTC) | 102 percentage of untreated control (UTC) | 100.0 |  |
| 327943 (antisense eT*eA*eT*e[5mC]*eT*eG*e[5mC]*eA*e[5mC]*eT*eA*eG*eA*eT*eG*e[5mC]*eA*e[5mC]*e[5mC]*eT*eT*eA) [compound 327943] | 87 percentage of untreated control (UTC) | 109 percentage of untreated control (UTC) | 98 percentage of untreated control (UTC) | 106 percentage of untreated control (UTC) | 112 percentage of untreated control (UTC) |  | % Activity Relative to UTC (tube formation) (HuVECs; Table 58): 81.5% |
| 327879 (antisense eA*eA*e[5mC]*eA*eA*eA*eA*eT*e[5mC]*eA*e[5mC]*eT*eA*eG*eT*e[5mC]*eT*eT*e[5mC]*e[5mC]*eA) [compound 327879] | 99 percentage of untreated control (UTC) | 103 percentage of untreated control (UTC) | 81 percentage of untreated control (UTC) | 103 percentage of untreated control (UTC) | 59 percentage of untreated control (UTC) | 71.4 |  |
| GCTGAGTGTAGGATGTTTACA (anti-miR; chemistry not fully specified) [ISIS 327948] |  |  |  |  |  |  | tube formation (HuVECs): suppressed tube formation |
| 327960 (antisense eG*eT*e[5mC]*eT*eG*eT*e[5mC]*eA*eA*eT*eT*e[5mC]*eA*eT*eA*eG*eG*eT*e[5mC]*eA*eT) [compound 327960] |  |  |  |  |  |  | GLUT4 mRNA (Glut4): 34 percentage of untreated control (UTC); HSL mRNA (HSL): 52 percentage of untreated control (UTC); PPAR gamma mRNA (PPARγ): 76 percentage of untreated control (UTC); AP2 mRNA (aP2): 52 percentage of untreated control (UTC); % Activity Relative to UTC (tube formation) (HuVECs; Table 59): 53.3%; TG (triglyceride accumulation) (adipocytes): 47 percentage of untreated control (UTC) |
| 327962 (antisense eG*e[5mC]*eT*eG*eA*eG*eA*eG*eT*eG*eT*eA*eG*eG*eA*eT*eG*eT*eT*eT*eA*e[5mC]*eA) [compound 327962] | 58 percentage of untreated control (UTC) | 77 percentage of untreated control (UTC) | 80 percentage of untreated control (UTC) | 75 percentage of untreated control (UTC) | 64 percentage of untreated control (UTC) |  | % Activity Relative to UTC (tube formation) (HuVECs; Table 59): 53.3% |
| 327947 (antisense eT*e[5mC]*eA*eG*eT*eT*eA*eT*e[5mC]*eA*e[5mC]*eA*eG*eT*eA*e[5mC]*eT*eG*eT*eA) [compound 327947] |  |  |  |  |  |  | % Activity Relative to UTC (tube formation) (HuVECs; Table 58): 81.5% |
| 327948 (antisense eG*e[5mC]*eT*eG*eA*eG*eT*eG*eT*eA*eG*eG*eA*eT*eG*eT*eT*eT*eA*e[5mC]*eA) [compound 327948] |  |  |  |  |  |  | % Activity Relative to UTC (tube formation) (HuVECs; Table 59): 33.3% |
| 327881 (antisense eA*eA*eA*eA*eG*eA*eG*eA*e[5mC]*e[5mC]*eG*eG*eT*eT*e[5mC]*eA*e[5mC]*eT*eG*eT*eG*eA) [compound 327881] | 97 percentage of untreated control (UTC) | 93 percentage of untreated control (UTC) | 98 percentage of untreated control (UTC) | 95 percentage of untreated control (UTC) | 91 percentage of untreated control (UTC) | 50.0 |  |
| 327894 (antisense eA*eT*eA*e[5mC]*eA*eT*eA*e[5mC]*eT*eT*e[5mC]*eT*eT*eT*eA*e[5mC]*eA*eT*eT*e[5mC]*e[5mC]*eA) [compound 327894] |  |  |  |  |  | 100.0 |  |
| 327966 (antisense eA*eT*e[5mC]*e[5mC]*eA*eA*eT*e[5mC]*eA*eG*eT*eT*e[5mC]*e[5mC]*eT*eG*eA*eT*eG*e[5mC]*eA*eG*eT*eA) [compound 327966] | 43 percentage of untreated control (UTC) | 56 percentage of untreated control (UTC) | 77 percentage of untreated control (UTC) | 53 percentage of untreated control (UTC) | 52 percentage of untreated control (UTC) |  | % Activity Relative to UTC (tube formation) (HuVECs; Table 59): 40.0% |
| 327929 (antisense eG*eA*eA*e[5mC]*eA*eG*eA*eT*eA*eG*eT*e[5mC]*eT*eA*eA*eA*e[5mC]*eA*e[5mC]*eT*eG*eG*eG) [compound 327929] | 49 percentage of untreated control (UTC) | 68 percentage of untreated control (UTC) | 71 percentage of untreated control (UTC) | 62 percentage of untreated control (UTC) | 65 percentage of untreated control (UTC) |  | % Activity Relative to UTC (tube formation) (HuVECs; Table 58): 51.9% |
| ATCCAATCAGTTCCTGATGCAGTA (chemistry not given here) [ISIS 327966] |  |  |  |  |  |  | tube formation (HuVECs): suppressed tube formation |
| 327884 (antisense eG*e[5mC]*eA*eA*eA*eA*eA*eT*eG*eT*eG*e[5mC]*eT*eA*eG*eT*eG*e[5mC]*e[5mC]*eA*eA*eA) [compound 327884] |  |  |  |  |  | 78.6 |  |
| 327915 (antisense eA*e[5mC]*eA*eT*eG*eG*eT*eT*eA*eG*eA*eT*e[5mC]*eA*eA*eG*e[5mC]*eA*e[5mC]*eA*eA) [compound 327915] |  |  |  |  |  |  | % Activity Relative to UTC (tube formation) (HuVECs; Table 57): 69.0% |
| 327932 (antisense eA*eG*eG*e[5mC]*eA*eT*eA*eG*eG*eA*eT*eG*eA*e[5mC]*eA*eA*eA*eG*eG*eG*eA*eA) [compound 327932] |  |  |  |  |  |  | % Activity Relative to UTC (tube formation) (HuVECs; Table 58): 51.9% |
| CCGGCTGCAACACAAGACACGA (anti-miR; chemistry not fully specified) [ISIS 327958] |  |  |  |  |  |  | tube formation (HuVECs): suppressed tube formation |
